Results on one molecule are retold here after patent publication US20100004234A1, “SPECIFIC KINASE INHIBITORS” (Kosan Biosciences Incorporated, priority 2004, published 2010).

Like-named read-outs stand apart in the source and are kept apart here.

The target in test [1] is T1, MEK1 (Homo sapiens, UniProt Q02750). Put plainly: Time-dependent kinase inhibition kinetics (pre-incubation, [32P]ATP filter binding). The format is biochemical. As for the experimental part:
Typically, one measures the increase in inhibition of protein kinase activity in the presence of inhibitor over time. In one method, aliquots of a “pre-incubation” reaction mixture containing enzyme and inhibitor are assayed for activity (initial velocities) over time; increased inhibition or decreased initial velocities will be observed over time as the Michael adduct forms (Walsh, C, Enzyme Reaction Mechanisms, W.H. Freeman & Co., 1979, pp 86-94). In a second method, the time dependent loss of activity is measured as “progress curves” that measure and analyze product formed (e.g. ADP) versus time (Morrison & Walsh, Adv. Enzymol Relat Areas Mol. Biol. 1988, 61, 201-301). In either case, the time dependent inactivation can be dampened by the presence of a competing substrate, in this case ATP.
MEK1 and many other protein kinases that can be targets of the compounds useful in the methods of the invention can be obtained commercially (Invitrogen; Carlsbad, Calif.) or prepared using standard molecular biology techniques. After activation by phosphorylation, they are assayed for their ability to phosphorylate a target kinase or surrogate substrate. For example, MEK1 can be assayed in a mixture containing MEK1 (30 nM) and ERK1 (2 μM), [γ-^32P]ATP (10 uM) and MgCl2 in Mops buffer pH 7.6. Phosphorylation can be measured by isolating [γ-^32P]-phosphorylated ERK1 on phosphocellulose paper, and counting radioactive product. Alternatively, a coupled enzyme system may be used in which a product of the kinase reaction, such as ADP, is measured by analysis with a secondary system that converts that product (e.g. ADP) to an easily measurable entity (e.g. NADH); often, such coupled systems can be measured by convenient spectrophotometry assays.
To measure time-dependent inhibition using the “pre-incubation method”, MEK1 (or other kinase) is incubated with varying amounts of the lactone inhibitor; […]. Aliquots are removed at various times, added to a solution containing substrates [γ-^32P]ATP, ERK1 (or other substrate), and the other components of the reaction, and initial rates are determined as a measure of remaining enzyme activity.
For covalent inhibitors, plots of log (activity) versus time provide apparent first-order rate constants (kobsd) of enzyme activity loss. If these assays are performed at varying concentrations of inhibitor, a series of first-order plots is obtained and kobsd obtained at each inhibitor concentration. To measure time-dependent inhibition using the “progress-curve method” (see references cited above and Kuzmic et al., Methods Enzymol 2004; 383: 366-81), ERK (or other kinase) is treated with varying amounts of the lactone inhibitor, and the formation of ADP is measured continuously by a coupled assay. […] Such molecules may be competitive inhibitors but should not show time-dependent inactivation.
Those of skill in the art will recognize that within the set of compounds useful in the methods of the invention, significant variability in specificity can be achieved, allowing one to identify optimal compounds for different applications. Inhibition progress curve analysis was performed using continuous, colorimetric, or fluorimetric assays. All experiments were done at 1 mM ATP, with the exception of KDR (at 5 mM ATP).
MEK1 assays were performed using pre-incubation experiments with radioactive [^32P]ATP and filter binding of product. All other kinases were analyzed using progress curve analysis from a continuous spectrophotometric assay.

Test [2] deals with T1, MEK1. The settings on record: cited from earlier work.
In test [3] the test system is P815 (Mouse mastocytoma, KIT D814Y). Description: Cell proliferation assay (Cell Titer Glo). It counts as cell-based. The settings on record: Mus musculus. As for the experimental part: (§1) In one illustrative method, cells are treated with various concentrations of the inhibitor in 96 well plates, incubated at 37° C./5% CO2 for three days, and analyzed using the Cell Titer Glo kit (Promega).

Test [4] deals with DU4475 (Human breast, B-Raf V599E). Description: Cell proliferation assay (Cell Titer Glo). It counts as cell-based. Conditions: Homo sapiens, DU-4475, read-out: Kinase Inhibitor IC50. The method, then:
as §1

The test system of test [5] is phosphorylated ERK in COLO829 cells (B-Raf V599E). Description: Phospho-ERK Western blot in COLO829 cells. The format is cell-based, human. The method, then:
The downstream effects of inhibition of a particular kinase (e.g. MEK) can be established by measuring the phosphorylation state of several proteins that require that kinase for phosphorylation (e.g. ERK1). Cultured cells are treated with hypothemycin or other lactone analogs described herein, and Western blots of cell extracts are probed with antibodies specific for the unmodified and phosphorylated forms of the downstream targets. As an example, the effects of hypothemycin on MEK1/2 can be determined by measuring the level of ERK1/2 phosphorylation.
Referring to FIG. 8, B-Raf V599E mutant melanoma cell line COLO829 was incubated with 1 microM hypothemycin for 2, 5, 10, 15, 30, and 60 minutes. The cells were then lysed and the proteins extracted. Equal amounts of total protein from each sample were separated by SDS-PAGE followed by electroblotting to a PVDF membrane. The levels of phospho-ERK present in each extract were visualized by incubation of the membrane with anti-phosphoERK antibody (Cell Signaling Technologies) followed by incubation with an HRP linked secondary antibody. Phospho-ERK containing bands were detected by autoradiography using the ECL Western detection kit (Amersham).

Test [6] concerns HT29 (Human colon, B-Raf V599E). Put plainly: Cell proliferation assay (Cell Titer Glo). The format is cell-based. As for the experimental part:
as §1
(§2) COLO829 is a human melanoma cell line. HT29 is a human colon cancer cell line. Both cell lines have a V600E B-Raf mutation. SKOV3 is an ovarian cancer cell line having wild-type B-Raf. EKR2 (extra-cellular signal regulated kinase 2) is a kinase in the Ras/B-Raf MAP kinase cascade pathway.

The test system of test [7] is COLO829 (Human melanoma, B-Raf V599E). Description: Cell proliferation assay (Cell Titer Glo). It counts as cell-based. The method, then:
as §1, §2

Test [8] relates to ERK1/2 activation in human T cells. The settings on record: tested at 0.3 to 3 μM; cited from earlier work.
The next test concerns A375 xenograft. Description: B-Raf mutant melanoma (A375) xenograft model. It counts as in vivo. From the text: The sensitivity of B-Raf mutated cancer cell lines to RALs was confirmed in a B-Raf mutant melanoma (A375) xenograft model.

T1 sequence (Q02750 whole entry): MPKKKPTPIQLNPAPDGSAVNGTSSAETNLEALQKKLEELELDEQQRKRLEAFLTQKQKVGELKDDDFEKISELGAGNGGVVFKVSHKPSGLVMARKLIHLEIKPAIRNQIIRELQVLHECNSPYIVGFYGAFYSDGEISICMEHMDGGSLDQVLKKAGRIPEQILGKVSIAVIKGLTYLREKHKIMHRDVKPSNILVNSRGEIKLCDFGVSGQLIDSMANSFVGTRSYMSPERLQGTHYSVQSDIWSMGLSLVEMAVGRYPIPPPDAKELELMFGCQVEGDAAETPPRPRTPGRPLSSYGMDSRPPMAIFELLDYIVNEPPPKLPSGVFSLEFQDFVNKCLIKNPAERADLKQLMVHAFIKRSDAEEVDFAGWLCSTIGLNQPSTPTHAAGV

Regarding `COc1cc(O)c2c(c1)[C@H]1O[C@@H]1C[C@H](O)[C@H](O)C(=O)/C=C\C[C@H](C)OC2=O` [Hypothemycin, hypothemycin], at MEK1 [1], the kinact/KI is 130000 M⁻¹ s⁻¹. This molecule registered a Ki at MEK1 [1] (1 mM ATP) of 0.019 µM. For the same molecule, the kinact on MEK1 [1] (1 mM ATP, read-out: kinact) stood at 0.003 s⁻¹. For the same molecule, on MEK1 [2], the “potency as MEK1 inhibitor relative to L-783,277 (fold less potent)” value is listed as 4 fold. Besides, the GI50 was determined as 0.31 µM in [3] (P815) and 0.05 µM in test [7] (Homo sapiens, COLO-829). Further, the IC50 in test [3] (P815, read-out: Kinase Inhibitor IC50) is 0.31 µM; in [4], 0.018 µM; in test [6] (HT-29, Table 7, HT29 human colon cancer, V600E B-Raf, read-out: Cell Line IC50 HT29), 0.24 ± 0.17 µM; in test [6] (Homo sapiens, HT-29, read-out: Kinase Inhibitor IC50), 0.1 µM; in [7] (COLO-829, Table 7, COLO829 human melanoma, V600E B-Raf, read-out: Cell Line IC50 COLO829), 0.073 ± 0.017 µM; in [7] (Homo sapiens, COLO-829, read-out: Kinase Inhibitor IC50), 0.089 µM. For the same molecule, the “time phosphorylated active ERK is absent after removal of the inhibitor” value in [5] (COLO829 (and other BRAF mutant cells)) was ~24 h. For the same molecule, the “ERK pathway after a 10 min. exposure” value in [5] (COLO829, concentrations several-fold lower than Kd / sub-micromolar) was “completely shut down”. Besides, the “time to depletion of the phosphorylated form of ERK” value in test [5] (COLO829 cells, 1 microM hypothemycin, FIG. 8) was ≤ 10 min. Besides, the “inhibition of the activation of ERK1/2” value in test [8] was “inhibit”. Also, the “growth of the A375 xenograft relative to vehicle alone” value with A375 xenograft (administered daily at 15 mg/kg or 20 mg/kg, FIG. 6) is on record as “significantly inhibits the growth”. Besides, in the test with A375 xenograft (hypothemycin at both dosages vs Bayer 43-9006 25 mg/kg or 50 mg/kg every other day), the “A375 xenograft growth inhibition compared with Bayer 43-9006” value is reported as “significantly better”.
